What is called EC50 is the concentration that produces a half-maximal response. High values mean lower potency in that assay, low ones higher potency in that assay. As usually defined, the Emax is the maximal effect, on the per cent scale that the assay sets. As a reminder, the pEC50 is −log10 of the EC50, conventionally taken in molar units. The low end stands for a large EC50, the high end for a small EC50.

This is an account of results in PMC9189904, “Functional Properties of Two Distinct PTH1R Mutants Associated With Either Skeletal Defects or Pseudohypoparathyroidism” (JBMR Plus, 2022).

Test [1] concerns the target T1, PTH1R‐R186H (Homo sapiens, UniProt Q03431, R186H).
T1 construct: expressed in transfected cells; plasmid TG-907 made by VectorBuilder
T1 sequence (Q03431 27-593 E90Y/S91D/E92V/E93P/K95Y/E96A/R186H): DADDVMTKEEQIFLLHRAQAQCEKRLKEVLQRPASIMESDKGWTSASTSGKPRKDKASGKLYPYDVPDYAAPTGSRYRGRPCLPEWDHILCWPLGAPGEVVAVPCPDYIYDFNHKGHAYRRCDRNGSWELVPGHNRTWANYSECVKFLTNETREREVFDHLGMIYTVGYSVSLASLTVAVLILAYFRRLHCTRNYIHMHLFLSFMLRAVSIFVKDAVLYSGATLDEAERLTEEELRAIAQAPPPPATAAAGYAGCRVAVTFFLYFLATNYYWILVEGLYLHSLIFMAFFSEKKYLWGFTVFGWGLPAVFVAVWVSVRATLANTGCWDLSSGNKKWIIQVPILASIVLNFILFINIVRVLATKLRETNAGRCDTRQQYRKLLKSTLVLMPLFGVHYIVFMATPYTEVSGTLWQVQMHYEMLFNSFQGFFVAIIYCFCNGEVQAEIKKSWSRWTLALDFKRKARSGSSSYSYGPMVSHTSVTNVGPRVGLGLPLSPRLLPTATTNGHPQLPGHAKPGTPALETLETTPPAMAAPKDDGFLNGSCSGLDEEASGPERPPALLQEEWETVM
As to the kind of experiment: GloSensor cAMP signaling assay in transiently transfected GS-22a cells. The test is classed as cell-based. The note with it: for EC50: Table 2, N-terminal analogs, means of four or three (M-PTH(1-11)) experiments, each in duplicate; for EC50 / pEC50: GS-22a cells; for pEC50: Suppl. Table 2, full-length ligands, mean ± SEM of three experiments; for Emax, %: Suppl. Table 2, percent of maximum response of the same ligand on PTH1R-WT, three experiments. On the procedure: (§1) GS‐22a cells are derived from HEK293 cells (American Type Culture Collection [ATCC], Manassas, VA, USA; CRL‐1573) by stably transfection with the luciferase‐based GloSensor (Promega, San Luis Obispo, CA, USA) cAMP reporter plasmid pGloSensor‐22F. The cells were cultured in Dulbecco's modified Eagle medium (DMEM) supplemented with fetal bovine serum (10%) in a humidified incubator containing 5% CO2 and set at 37°C, and seeded into 96‐well or six‐well plates for transient DNA transfection and functional assays. Cells were transfected when the monolayers were 85%–95% of confluency using Lipofectamine™ 2000 (Thermo Fisher Scientific, Waltham, MA, USA) and 100 ng of DNA per well for 96‐well plates and 1000 ng of DNA per well for six‐well plates. Assays were performed 48 hours after transfection, and media was changed 2–4 hours prior to assay.
(§2) PTH1R‐mediated cAMP signaling was assessed via the GloSensor cAMP reporter in GS‐22a cells in white 96‐well plates. Assays were performed at ambient room temperature. For each plate, the media was replaced with CO2‐independent media (Thermo Fisher Scientific; Cat. No. 18045088) containing luciferin (0.5mM) and the plate was placed into a PerkinElmer Envision plate reader and cAMP‐dependent luminescence, as counts per second (cps), was measured at 2‐minute intervals for 15 minutes, during which time luciferin uptake occurred and luminescence reached a near steady‐state baseline. The plate was then removed from the plate reader, media (vehicle) or test ligands were added at varying concentrations, and luminescence was again measured at 2‐minute intervals for an additional 30–60 minutes.
(§3) Data were processed using Microsoft Excel and GraphPad Prism 8.0 software and analyzed statistically using a Student's t test (two‐tailed and unequal variances). Dose–response curves were fit to the data by using a three‐parameter sigmoidal dose–response equation with nonlinear regression, which yielded the reported response parameters of potency (EC50), efficacy (Emax), and […].

Test [2] concerns the target T2, PTH1R‐V204E (Homo sapiens, UniProt Q03431, V204E).
T2 construct: expressed in transfected cells; plasmid TG-928 made by VectorBuilder
T2 sequence (Q03431 27-593 E90Y/S91D/E92V/E93P/K95Y/E96A/V204E): T1 sequence (Q03431 27-593 E90Y/S91D/E92V/E93P/K95Y/E96A/R186H) with H160R, V178E
The test is described as above. The class given is cell-based. The conditions noted are these: for EC50: Table 2, N-terminal analogs, means of four or three (M-PTH(1-11)) experiments, each in duplicate; for EC50 / pEC50: GS-22a cells; for pEC50: Suppl. Table 2, full-length ligands, mean ± SEM of three experiments; for Emax, %: Suppl. Table 2, percent of maximum response of the same ligand on PTH1R-WT, three experiments. The protocol: as §1, §2, §3

For test [3], the target named is T3, PTH1R‐WT (Homo sapiens, UniProt Q03431).
T3 construct: expressed in transfected cells; plasmid TG-906 made by VectorBuilder
T3 sequence (Q03431 27-593 E90Y/S91D/E92V/E93P/K95Y/E96A): T1 sequence (Q03431 27-593 E90Y/S91D/E92V/E93P/K95Y/E96A/R186H) with H160R
The test is described as above. The conditions noted are these: for EC50: Table 2, N-terminal analogs, means of four or three (M-PTH(1-11)) experiments, each in duplicate; for EC50 / pEC50: GS-22a cells; for Emax: Table 2, percent of maximum response of the same ligand on PTHR1-WT, four or three (M-PTH(1-11)) experiments; for pEC50: Suppl. Table 2, full-length ligands, mean ± SEM of three experiments, SEM; for Emax, %: Suppl. Table 2, percent of maximum response of the same ligand on PTH1R-WT, three experiments. The test is classed as cell-based. The protocol:
as §1, §2, §3

In test [4] the target is T4, PTH1R‐P132L (Homo sapiens, UniProt Q03431, P132L).
T4 construct: expressed in transfected cells; plasmid TG-395 in pCDNA1
T4 sequence (Q03431 27-593 E90Y/S91D/E92V/E93P/K95Y/E96A/P132L): T1 sequence (Q03431 27-593 E90Y/S91D/E92V/E93P/K95Y/E96A/R186H) with P106L, H160R
The description is as above. The class given is cell-based. The conditions noted are these: Table 1, percent of maximum response of the same ligand on PTH1R-WT, mean ± SEM of five experiments. The protocol: as §1, §2, §3

The target of test [5] is HA‐tagged human PTH1R‐V204E (human) (UniProt Q03431).
Setting [6] is: Table 2, percent of maximum response of the same ligand on PTHR1-WT, four or three (M-PTH(1-11)) experiments.
The mark [7] stands for this setting: Table 1, percent of maximum response of the same ligand on PTH1R-WT, mean ± SEM of five experiments, SEM.

Changes are numbered by the printed parent chain. Non-standard residues stand in square brackets, D forms with d. Residues, ends and D or L forms follow the SMILES beside them. No end group written: not given here. hArg = N=C(N)NCCCC[C@H](N)C(=O)O; Ac5c = NC1(C(=O)O)CCCC1; Aib = CC(C)(N)C(=O)O

Regarding `CC[C@H](C)[C@H](NC(=O)[C@H](CCC(=O)O)NC(=O)C(C)(C)NC(=O)[C@@H](NC(=O)C1(N)CCCC1)C(C)C)C(=O)N[C@@H](CCC(N)=O)C(=O)N[C@@H](CC(C)C)C(=O)N[C@@H](CCSC)C(=O)N[C@@H](Cc1c[nH]cn1)C(=O)N[C@@H](CCC(N)=O)C(=O)N[C@@H](CCCCNC(=N)N)C(N)=O` [M‐PTH(1‐11), modified (M)‐PTH(1‐11)] (H-[Ac5c]V[Aib]EIQLMHQ[hArg]-NH2), the EC50 was 2.82 nM in test [1], 0.759 nM in test [2] and 0.191 nM in test [3]. Moreover, the Emax in test [1] (setting [6]) stood at 126 ± 14%; in test [2] (setting [6]), 80 ± 11%; in test [3], 100%.
In the case of `CC[C@H](C)[C@H](NC(=O)[C@H](CCC(=O)O)NC(=O)[C@H](CO)NC(=O)[C@@H](NC(=O)[C@@H](N)CO)C(C)C)C(=O)N[C@@H](CCC(N)=O)C(=O)N[C@@H](CC(C)C)C(=O)N[C@@H](CCSC)C(=O)N[C@@H](Cc1c[nH]cn1)C(=O)N[C@@H](CC(N)=O)C(=O)N[C@@H](CC(C)C)C(=O)NCC(=O)N[C@@H](CCCCN)C(=O)N[C@@H](Cc1c[nH]cn1)C(=O)N[C@@H](CC(C)C)C(=O)N[C@@H](CC(N)=O)C(=O)N[C@@H](CO)C(=O)N[C@@H](CCSC)C(=O)N[C@@H](CCC(=O)O)C(=O)N[C@@H](CCCNC(=N)N)C(=O)N[C@H](C(=O)N[C@@H](CCC(=O)O)C(=O)N[C@@H](Cc1c[nH]c2ccccc12)C(=O)N[C@@H](CC(C)C)C(=O)N[C@@H](CCCNC(=N)N)C(=O)N[C@@H](CCCCN)C(=O)N[C@@H](CCCCN)C(=O)N[C@@H](CC(C)C)C(=O)N[C@@H](CCC(N)=O)C(=O)N[C@@H](CC(=O)O)C(=O)N[C@H](C(=O)N[C@@H](Cc1c[nH]cn1)C(=O)N[C@@H](CC(N)=O)C(=O)N[C@@H](Cc1ccccc1)C(N)=O)C(C)C)C(C)C` [PTH(1‐34), human(h)PTH(1‐34)], the Emax in test [1] (setting [7]) is 118 ± 4%; in test [2] (setting [7]), 81 ± 4%; in test [4], roughly 45%. The “Emax, %” value in test [4] (SEM) is 44 ± 4%.
“SVSEIQLMHNLGKHLNSMERVEWLRKKL-NH2 [PTH(1‐28), hPTH(1‐28)]”: the EC50 in test [1] is 0.575 nM; in test [2], 0.447 nM; in test [3] it was 0.776 nM. The Emax in test [1] (setting [6]) is 98 ± 10%; in test [2] (setting [6]), 78 ± 10%; in test [3] it was 100%.
Take hPTH(1‐84) [PTH(1-84)]: the pEC50 is 9.25 in test [1] (SEM), 9.19 in test [2] (SEM) and 9.05 in test [3]. In addition, the “Emax, %” value came out at 96 ± 4% in test [1], 115 ± 11% in test [2] and 100 ± 0% in test [3].
As for hPTHrP(1‐141) [PTHrP(1-141)], the values for the pEC50 in test [1] (SEM), in test [2] (SEM) and in test [3] were 8.90, 8.55 and 8.65, respectively. Besides, the “Emax, %” value in test [1] is 108 ± 3%; in test [2], 133 ± 12%; in test [3] it was 100 ± 0%.
Consider human(h)PTH(1‐34) (peptide), for which the cAMP‐dependent GloSensor luminescence in transfected GS‐22a cells, potency: pEC50 with EC50 (nM) in parentheses in test [5] was determined as 0.33 nM.
